According to PMC9288506, “Compounds activating VCP D1 ATPase enhance both autophagic and proteasomal neurotoxic protein clearance” (Nature Communications, 2022):

Biological target: T1, VCP (p97, Valosin-containing protein) (Homo sapiens, UniProt P55072)
T1 construct: Full-length VCP (6xHis-tag)
Assay: SPR
Assay type: binding

T1 sequence (P55072 2-806): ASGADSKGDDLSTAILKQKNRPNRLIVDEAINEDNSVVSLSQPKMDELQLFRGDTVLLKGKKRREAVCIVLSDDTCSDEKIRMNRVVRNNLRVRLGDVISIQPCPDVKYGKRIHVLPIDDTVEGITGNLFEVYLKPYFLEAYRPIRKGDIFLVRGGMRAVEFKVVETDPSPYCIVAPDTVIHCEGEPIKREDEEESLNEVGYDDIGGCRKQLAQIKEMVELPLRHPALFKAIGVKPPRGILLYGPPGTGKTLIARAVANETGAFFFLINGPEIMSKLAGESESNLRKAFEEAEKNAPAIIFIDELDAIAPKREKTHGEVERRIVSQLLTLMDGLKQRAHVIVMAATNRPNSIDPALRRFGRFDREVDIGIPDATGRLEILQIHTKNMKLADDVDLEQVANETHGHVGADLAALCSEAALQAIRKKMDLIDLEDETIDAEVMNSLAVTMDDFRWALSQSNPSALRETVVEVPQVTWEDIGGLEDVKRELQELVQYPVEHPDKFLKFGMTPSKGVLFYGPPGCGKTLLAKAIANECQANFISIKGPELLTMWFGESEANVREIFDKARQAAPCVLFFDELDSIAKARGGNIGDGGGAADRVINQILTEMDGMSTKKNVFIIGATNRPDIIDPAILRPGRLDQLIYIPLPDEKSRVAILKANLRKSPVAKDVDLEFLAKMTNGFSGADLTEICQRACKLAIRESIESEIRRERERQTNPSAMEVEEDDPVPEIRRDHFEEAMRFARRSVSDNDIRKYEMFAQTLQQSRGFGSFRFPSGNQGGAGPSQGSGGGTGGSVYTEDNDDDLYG

## Nc1ncnc2c1ncn2[C@@H]1O[C@H](COP(=O)(O)OP(=O)(O)O)[C@@H](O)[C@H]1O [ADP]
  Kd: ~800 nM

## COc1cccc2c(NCc3ccccc3)nc(-n3c(N)nc4ccccc43)nc12 [ML240]
  Kd: 230 ± 30 nM
